Reference: PubChem BioAssay (NCI)
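48-hour exposure; five concentrations; linearly interpolated endpoints. GI50 marks 50% less growth. The concentration for full growth arrest is given as TGI.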

What was measured:
Experiment in all cases: NCI-60 cell line screen, 48 h
786-0 renal = test system: 786-0 renal
A498 renal = test system: A498 renal
A549 NSCLC = test system: A549 NSCLC
ACHN renal = test system: ACHN renal
BT-549 breast = test system: BT-549 breast
CAKI-1 renal = test system: CAKI-1 renal
CCRF-CEM leukemia = test system: CCRF-CEM leukemia
COLO 205 colon = test system: COLO 205 colon
DU-145 prostate = test system: DU-145 prostate
EKVX NSCLC = test system: EKVX NSCLC
HCC-2998 colon = test system: HCC-2998 colon
HCT-116 colon = test system: HCT-116 colon
HCT-15 colon = test system: HCT-15 colon
HL-60(TB) leukemia = test system: HL-60(TB) leukemia
HOP-62 NSCLC = test system: HOP-62 NSCLC
HOP-92 NSCLC = test system: HOP-92 NSCLC
HS 578T breast = test system: HS 578T breast
HT29 colon = test system: HT29 colon
IGROV1 ovarian = test system: IGROV1 ovarian
K-562 leukemia = test system: K-562 leukemia
KM12 colon = test system: KM12 colon
LOX IMVI melanoma = test system: LOX IMVI melanoma
M14 melanoma = test system: M14 melanoma
MALME-3M melanoma = test system: MALME-3M melanoma
MCF7 breast = test system: MCF7 breast
MDA-MB-435 = test system: MDA-MB-435
MDA-MB-468 breast = test system: MDA-MB-468 breast
MOLT-4 leukemia = test system: MOLT-4 leukemia
NCI-H226 lung = test system: NCI-H226 lung
NCI-H23 lung = test system: NCI-H23 lung
NCI-H460 lung = test system: NCI-H460 lung
NCI-H522 lung = test system: NCI-H522 lung
NCI/ADR-RES ovarian = test system: NCI/ADR-RES ovarian
OVCAR-3 ovarian = test system: OVCAR-3 ovarian
OVCAR-4 ovarian = test system: OVCAR-4 ovarian
OVCAR-5 ovarian = test system: OVCAR-5 ovarian
OVCAR-8 ovarian = test system: OVCAR-8 ovarian
PC-3 prostate = test system: PC-3 prostate
RPMI-8226 leukemia = test system: RPMI-8226 leukemia
RXF 393 renal = test system: RXF 393 renal
SF-268 CNS = test system: SF-268 CNS
SF-295 CNS = test system: SF-295 CNS
SF-539 CNS = test system: SF-539 CNS
SK-MEL-2 melanoma = test system: SK-MEL-2 melanoma
SK-MEL-28 melanoma = test system: SK-MEL-28 melanoma
SK-MEL-5 melanoma = test system: SK-MEL-5 melanoma
SK-OV-3 ovarian = test system: SK-OV-3 ovarian
SN12C renal = test system: SN12C renal
SNB-19 CNS = test system: SNB-19 CNS
SNB-75 CNS = test system: SNB-75 CNS
SW-620 colon = test system: SW-620 colon
T-47D breast = test system: T-47D breast
TK-10 renal = test system: TK-10 renal
U251 CNS = test system: U251 CNS
UACC-257 melanoma = test system: UACC-257 melanoma
UACC-62 melanoma = test system: UACC-62 melanoma

CCCCCCCCCCCCCCCCCCCC(=O)NCCc1c[nH]c2ccc(OC(=O)CCCC(=O)OCCOOCCOOCCOOCCOOCCOOCCOOCCOOCCOOCCOOCCOOCCOOCCOC)cc12
GI50 (786-0 renal): > 100 µM | TGI (786-0 renal): > 100 µM | GI50 (A498 renal): > 100 µM | TGI (A498 renal): > 100 µM | GI50 (A549 NSCLC): 21.7 µM | TGI (A549 NSCLC): 62.3 µM | GI50 (ACHN renal): 25.2 µM | TGI (ACHN renal): > 100 µM | GI50 (BT-549 breast): 4.15 µM | TGI (BT-549 breast): 14 µM | GI50 (CAKI-1 renal): 34 µM | TGI (CAKI-1 renal): > 100 µM | GI50 (CCRF-CEM leukemia): 769 nM | TGI (CCRF-CEM leukemia): 8.4 µM | GI50 (COLO 205 colon): > 100 µM | TGI (COLO 205 colon): > 100 µM | GI50 (DU-145 prostate): 24.8 µM | TGI (DU-145 prostate): > 100 µM | GI50 (EKVX NSCLC): 26.9 µM | TGI (EKVX NSCLC): > 100 µM | GI50 (HCC-2998 colon): 44.7 µM | TGI (HCC-2998 colon): > 100 µM | GI50 (HCT-116 colon): 30.7 µM | TGI (HCT-116 colon): > 100 µM | GI50 (HCT-15 colon): 31 µM | TGI (HCT-15 colon): > 100 µM | GI50 (HL-60(TB) leukemia): 2530 nM | TGI (HL-60(TB) leukemia): 10.3 µM | GI50 (HOP-62 NSCLC): 26.7 µM | TGI (HOP-62 NSCLC): > 100 µM | GI50 (HOP-92 NSCLC): 18.6 µM | TGI (HOP-92 NSCLC): 44.8 µM | GI50 (HS 578T breast): 38.7 µM | TGI (HS 578T breast): > 100 µM | GI50 (HT29 colon): 32.9 µM | TGI (HT29 colon): > 100 µM | GI50 (IGROV1 ovarian): 16.2 µM | TGI (IGROV1 ovarian): 38.9 µM | GI50 (K-562 leukemia): 5.59 µM | TGI (K-562 leukemia): 26.4 µM | GI50 (KM12 colon): 17.5 µM | TGI (KM12 colon): 52.6 µM | GI50 (LOX IMVI melanoma): 13.4 µM | TGI (LOX IMVI melanoma): 33.1 µM | GI50 (M14 melanoma): 29 µM | TGI (M14 melanoma): > 100 µM | GI50 (MALME-3M melanoma): 54.3 µM | TGI (MALME-3M melanoma): > 100 µM | GI50 (MCF7 breast): 24.1 µM | TGI (MCF7 breast): > 100 µM | GI50 (MDA-MB-435): 41.2 µM | TGI (MDA-MB-435): > 100 µM | GI50 (MDA-MB-468 breast): 29.6 µM | TGI (MDA-MB-468 breast): > 100 µM | GI50 (MOLT-4 leukemia): 4.61 µM | TGI (MOLT-4 leukemia): 23 µM | GI50 (NCI-H226 lung): 14 µM | TGI (NCI-H226 lung): 33.1 µM | GI50 (NCI-H23 lung): 18.9 µM | TGI (NCI-H23 lung): 42.4 µM | GI50 (NCI-H460 lung): 27.9 µM | TGI (NCI-H460 lung): > 100 µM | GI50 (NCI-H522 lung): 2700 nM | TGI (NCI-H522 lung): 9.36 µM | GI50 (NCI/ADR-RES ovarian): 21.8 µM | TGI (NCI/ADR-RES ovarian): 72 µM | GI50 (OVCAR-3 ovarian): 10.7 µM | TGI (OVCAR-3 ovarian): 25.6 µM | GI50 (OVCAR-4 ovarian): 20.8 µM | TGI (OVCAR-4 ovarian): 95.1 µM | GI50 (OVCAR-5 ovarian): 68 µM | TGI (OVCAR-5 ovarian): > 100 µM | GI50 (OVCAR-8 ovarian): 16 µM | TGI (OVCAR-8 ovarian): 38.5 µM | GI50 (PC-3 prostate): 11.6 µM | TGI (PC-3 prostate): 49.5 µM | GI50 (RPMI-8226 leukemia): 3.22 µM | TGI (RPMI-8226 leukemia): 26.5 µM | GI50 (RXF 393 renal): 18.9 µM | TGI (RXF 393 renal): 39.2 µM | GI50 (SF-268 CNS): 15.2 µM | TGI (SF-268 CNS): 47.1 µM | GI50 (SF-295 CNS): 15.7 µM | TGI (SF-295 CNS): 31.6 µM | GI50 (SF-539 CNS): 11 µM | TGI (SF-539 CNS): 25.3 µM | GI50 (SK-MEL-2 melanoma): 26.1 µM | TGI (SK-MEL-2 melanoma): > 100 µM | GI50 (SK-MEL-28 melanoma): > 100 µM | TGI (SK-MEL-28 melanoma): > 100 µM | GI50 (SK-MEL-5 melanoma): 40.8 µM | TGI (SK-MEL-5 melanoma): > 100 µM | GI50 (SK-OV-3 ovarian): > 100 µM | TGI (SK-OV-3 ovarian): > 100 µM | GI50 (SN12C renal): 12.6 µM | TGI (SN12C renal): 33.2 µM | GI50 (SNB-19 CNS): 22.4 µM | TGI (SNB-19 CNS): 62.8 µM | GI50 (SNB-75 CNS): > 100 µM | TGI (SNB-75 CNS): > 100 µM | GI50 (SW-620 colon): 35.5 µM | TGI (SW-620 colon): > 100 µM | GI50 (T-47D breast): 14.9 µM | TGI (T-47D breast): > 100 µM | GI50 (TK-10 renal): > 100 µM | TGI (TK-10 renal): > 100 µM | GI50 (U251 CNS): 17.1 µM | TGI (U251 CNS): 33.9 µM | GI50 (UACC-257 melanoma): > 100 µM | TGI (UACC-257 melanoma): > 100 µM | GI50 (UACC-62 melanoma): 34.8 µM | TGI (UACC-62 melanoma): > 100 µM
